Measured values: ChEMBL document CHEMBL5143647, “Design, synthesis and biological evaluation of novel pyridine derivatives as gut-selective NaPi2b inhibitors” (Bioorg Med Chem Lett, 2022)
Converted amounts (≈) assume the structure as drawn. The source made the active and inactive calls. The calls are words filed in the database; no cut-off is given here.

Experiments:
[1] = Oral bioavailability in Sprague-Dawley rat at 11.9 mg/kg measured for 24 hrs by liquid chromatography-tandem mass spectrometry; assay type: ADME, organism-based; conditions: in vivo
[2] = target: T1, Sodium-dependent phosphate transport protein 2B (Homo sapiens, UniProt O95436); test: Inhibition of human NaPi2b stably expressed in CHO-K1 cells assessed as reduction in H2[33P]O4 uptake incubated for 30 mins by liquid scintillation counting method; assay type: cell-based
T1 sequence (O95436 whole entry): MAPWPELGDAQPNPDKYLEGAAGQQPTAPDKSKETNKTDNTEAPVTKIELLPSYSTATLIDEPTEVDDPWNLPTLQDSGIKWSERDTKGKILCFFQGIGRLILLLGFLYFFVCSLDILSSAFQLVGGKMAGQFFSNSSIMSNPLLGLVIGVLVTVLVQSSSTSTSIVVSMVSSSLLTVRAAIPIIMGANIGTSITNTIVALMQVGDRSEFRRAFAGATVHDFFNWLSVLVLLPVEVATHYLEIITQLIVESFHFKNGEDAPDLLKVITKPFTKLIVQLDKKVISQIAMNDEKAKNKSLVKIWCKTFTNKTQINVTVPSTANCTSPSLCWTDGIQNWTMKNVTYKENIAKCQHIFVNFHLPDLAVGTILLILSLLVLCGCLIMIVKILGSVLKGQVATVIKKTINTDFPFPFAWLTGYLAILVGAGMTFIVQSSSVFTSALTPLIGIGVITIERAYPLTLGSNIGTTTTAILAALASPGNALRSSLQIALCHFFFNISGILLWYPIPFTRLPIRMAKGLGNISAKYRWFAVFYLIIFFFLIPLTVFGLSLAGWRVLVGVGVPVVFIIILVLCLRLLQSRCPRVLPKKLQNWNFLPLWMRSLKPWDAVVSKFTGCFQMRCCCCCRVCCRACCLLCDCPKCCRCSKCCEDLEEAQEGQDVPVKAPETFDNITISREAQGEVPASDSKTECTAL

[3] = target: T2, Sodium-dependent phosphate transport protein 2B (Homo sapiens) (UniProt O95436); test: Inhibition of human NaPi2b at 1 uM relative to control
T2 sequence (whole entry): T1 sequence (O95436 whole entry)

[4] = Oral bioavailability in Sprague-Dawley rat at 10 mg/kg measured for 24 hrs by liquid chromatography-tandem mass spectrometry relative to control; assay type: ADME, organism-based; conditions: in vivo
[5] = Drug excretion in Sprague-Dawley rat feces at 10 mg/kg, po measured for 24 hrs by liquid chromatography-tandem mass spectrometry relative to control; assay type: ADME, organism-based; conditions: faeces, read-out: Drug excretion
[6] = Solubility in FaSSIF at pH 6.6 incubated for 25 degC for 2 hrs further incubated water bath at 35 degC for 22 hrs by HPLC analysis; assay type: physicochemical
[7] = Solubility in FeSSIF at pH 4.9 incubated for 25 degC for 2 hrs further incubated water bath at 35 degC for 22 hrs by HPLC analysis; assay type: physicochemical
[8] = system: Rattus norvegicus; test: In vivo inhibition of NaPi2b in Sprague-Dawley rat assessed as reduction in phosphate absorption at 10 mg/kg, po after 5 mins followed by NaH2PO4 containing 32P-phosphate solution treatment and measured after 15 to 30 mins by liquid scintillation counting method; assay type: functional, organism-based; conditions: dose […], time 35.0 min

CCN([C@H]1CC[C@H](C(=O)O)CC1)S(=O)(=O)c1cccc(C(=O)Nc2ccc(N3CCCCC3)nc2C(=O)Nc2ccc(CCc3ccc(C(=O)NS(=O)(=O)NC)cc3)cc2)c1
bioavailability [1]: 10.4%

CCC(CC)N(CCN(C)C(=O)CCC(=O)O)Cc1cccc(C(=O)Nc2ccc(N3CCCCC3)nc2C(=O)Nc2ccc(Oc3ccc(C(=O)O)cn3)cc2)c1
IC50 [2]: 715 nM

CCC(CC)N(CCN(C)C(=O)CCC(=O)O)Cc1cccc(C(=O)Nc2ccc(N3CCCCC3)nc2C(=O)Nc2ccc(Oc3ccc(C(=O)O)cc3)cc2)c1
IC50 [2]: 162 nM

CCC(CC)N(CCN(C)C(=O)CCC(=O)O)Cc1cccc(C(=O)Nc2[nH]c3c(c2C(=O)Nc2ccc(CCc4ccc(C(=O)O)cc4)cc2)CCCC3)c1
inhibition [3]: 87%

CCN([C@H]1CC[C@H](C(=O)NCCOCCOCCOCCO)CC1)S(=O)(=O)c1cccc(C(=O)Nc2ccc(N3CCCCC3)nc2C(=O)Nc2ccc(CCc3ccc(C(=O)O)cc3)cc2)c1
bioavailability [4]: 2.7%
dose excreted at 24 h [5]: 99.1%
solubility at 24 h [6]: 20.5 µg/mL (≈ 21.4 µM)
solubility at 24 h [7]: 15.9 µg/mL (≈ 16.6 µM)
inhibition [8]: Active

CCC(CC)N(CCN(C)C(=O)CCC(=O)O)Cc1cccc(C(=O)Nc2ccc(N3CCOCC3)nc2C(=O)Nc2ccc(CCc3ccc(C(=O)O)cc3)cc2)c1
IC50 [2]: 205 nM
